Data on four compounds can be found in paper PMC9081605, “A High-Throughput Toxicity Screen of 42 Per- and Polyfluoroalkyl Substances (PFAS) and Functional Assessment of Migration and Gene Expression in Human Placental Trophoblast Cells” (Frontiers in Toxicology, 2022).

Common to all, as to assay type: cell-based, human
Data set [1] concerns JEG-3 cells. Briefly: CellTiter-Glo luminescent cell viability assay (HTTS). The settings on record: for EC50: four-parameter fit, estimates meeting inclusion criteria; for cell viability relative to vehicle control (rough binning): after 24 h, in at least one concentration. A digest of the protocol:
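JEG-3 cells (2,500/well) adhered overnight, then exposed 24 h to PFAS (methanol stocks; vehicle 2.5% methanol, top concentration 500 µM). Viability read by CellTiter-Glo ATP luminescence in the same wells as mitochondrial membrane potential; wells with 0 h confluence <20% or >80% excluded.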

For data set [2], the system named is JEG-3 cells. Briefly: Mitochondrial membrane potential, JC-10 assay (HTTS). The conditions noted are these: for minimal effective concentration: read-out: MMP ↓, lowest concentration at which the mean response value exceeded the mean control value ± 2*SD (rough binning); for MMP relative to vehicle control (rough binning): after 24 h, in at least one concentration. A digest of the protocol:
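JEG-3 cells seeded at 2,500 per well were exposed to PFAS for 24 h at 37 °C, with 2.5% methanol vehicle. After a PBS wash, 20 μM JC-10 was added for 1 h at 37 °C. Membrane potential was taken as the green (490/525 nm) to red (540/590 nm) fluorescence ratio.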

Data set [3] deals with JEG-3 cells. Description: Phase contrast live cell images, cell death (positive control). The settings on record: 24 h. The protocol:
A total of 42 perfluoroalkyl substances (PFAS) were evaluated (Supplementary Table S1 contains source and purity). PFAS stock solutions were maintained in 100% methanol as previous work has shown certain PFAS degrade when stored in dimethyl sulfoxide (DMSO; [Gaballah et al., 2020]). […] The vehicle control group consisted of 97.5% media + 2.5% methanol to match the concentration of methanol in the media at the highest PFAS concentration tested (500 µM). Menadione (50–500 µM) was used as a positive control for cytotoxicity assessment. PFAS were de-identified and assigned random numbers to eliminate bias. Chemical exposure plate maps were designed so that all experimental conditions were tested in at least technical duplicates per plate. The outer edges of each plate received media alone and were excluded from all analyses to avoid edge effects. Each plate map included 14 technical replicates of the vehicle control group and 14 technical replicates of media only. Biological replicates were defined as separate 384 well plates tested on separate days using different cell passages. The experimental workflow is depicted in Supplementary Figure S1.
JEG-3 cells were counted using a Z2 Coulter Particle Counter (Beckman Coulter, CA, United States) and seeded at a density of 2,500 cells per well in black-walled, clear bottom 384 well plates (Corning, #3764) and allowed to adhere overnight. Approximately 24 h later, 384 well plates were imaged using an IncuCyte Zoom live cell imager (Essen BioScience Inc., MI, United States) to obtain baseline cellular confluence measurements prior to chemical dosing (0 h). Media was removed from wells and replaced with fresh media containing chemical treatments (exposure media) using a Viaflo liquid handling device (Integra Biosciences, NH, United States). Within 30 min of exposure media application, plates were again imaged for cellular confluence using the IncuCyte Zoom. Plates were incubated with exposure media for 24 h and then imaged again using the IncuCyte Zoom (24 h).

Data set [4] has as its system JEG-3 cells. Description: Proliferation, change in confluence 0-24 h (IncuCyte Zoom, HTTS). The conditions noted are these: for minimal effective concentration: read-out: Prolif ↓, lowest concentration at which the mean response value exceeded the mean control value ± 2*SD (rough binning); for cellular proliferation relative to vehicle control (rough binning): after 24 h, in at least one concentration. A digest of the protocol:
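Confluence measured by automated image masking at 0 h and 24 h after dosing; proliferation = 24 h minus baseline confluence. JEG-3 seeded at 2,500 cells/well, ~30–50% baseline confluence, exposed 24 h to PFAS up to 500 µM in medium with 2.5% methanol vehicle; 37°C, 5% CO2.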

Data set [5] has as its system JEG-3 cells. Briefly: Scratch wound migration assay. The settings on record: after 24 h of exposure, 25-200 µM. The protocol: JEG-3 cells were cultured as described in Cell Culture section, and six PFAS were evaluated across an 8-point linear concentration curve ranging from 25 to 200 µM (25 µM steps): PFOA (335-67-1), GenX (62037-80-3), PFOS (1763-23-1), perfluorooctanesulfonamide (PFOSA, 754-91-6), perfluorooctanamide (PFOAA, 423-54-1), and perfluorononanoic acid (PFNA, 375-95-1). The vehicle control group consisted of 98% media + 2% methanol to match the concentration of methanol in the media at the highest PFAS concentration tested (200 µM). Cadmium chloride (25 µM) was used as a positive control for cytotoxicity ([Brooks and Fry, 2017]). Chemical exposure plate maps were designed so that all experimental conditions were tested in at least technical duplicates per plate. The outer edges of each plate received media alone and were excluded from all analyses to avoid edge effects. JEG-3 cells were counted and seeded at a density of 80,000 cells per well in black-walled, clear bottom 96-well plates (Corning #CLS3603, Millipore Sigma) and allowed to adhere and grow for 36 h. After approximately 36 h, 96-well plates were imaged on the IncuCyte Zoom to obtain cellular confluence measurements prior to chemical dosing (0 h). Media was then removed from wells and replaced with fresh serum-free media containing chemical treatments (serum-free exposure media) using the Viaflo liquid handling device. After 1 h of treatment with serum-free exposure media, plates were again imaged for cellular confluence using the IncuCyte Zoom. Serum-free exposure media was then removed from wells and wells were scratched by dragging a 200 µl pipette tip from top to bottom of each well, changing tips every well. Fresh media containing serum and chemical treatments (exposure media) was added to plates using a liquid handling device and allowed to grow for 72 h, with imaging via the IncuCyte Zoom every 6 h.
Plate well bottom images were evaluated using automated cell masking as described in Proliferation section. Cell migration was calculated as the change in cellular confluence from the baseline measurement obtained immediately post-scratch to each subsequent time point (24, 48, and 72 h, post-scratch).
Raw migration assay data exported from IncuCyte software were analyzed using GraphPad Prism 8.0 (GraphPad Software, San Diego, CA)). Prior to analysis, a minimum starting confluence value of 70% was set to ensure comparisons between samples were not skewed. Images with a starting confluence of less than 70% were excluded from analysis. Statistical analysis was performed using multiple unpaired t-tests to compare treated groups to the vehicle control followed by post hoc correction for multiple tests using the Bonferroni-Dunn method. Concentration-response analysis to determine migration assay EC50s was attempted but was not able to be modeled due to the non-linear nature of the concentration-response relationship for this endpoint.

Setting [6] is: Homo sapiens, JEG-3, 24 h, read-out: Proliferation EC50 ± SD, JEG-3 cells, 24 h exposure, four-parameter fit, estimates meeting inclusion criteria.
The mark [7] stands for this setting: Homo sapiens, JEG-3, 24 h, read-out: MMP EC50 ± SD, JEG-3 cells, 24 h exposure, four-parameter fit, estimates meeting inclusion criteria.
The mark [8] stands for this setting: Homo sapiens, JEG-3, read-out: Proliferation EC50 ± SD (raw values), JEG-3 cells, raw model output including fits that did not meet inclusion criteria.

Entries after “also recorded” stand apart in the source; their conditions may differ. Bounds are passed on as bounds.

With `CC1=CC(=O)c2ccccc2C1=O` [Menadione, reference compound], the EC50 in data set [1] (Homo sapiens, JEG-3, 24 h, read-out: Viability EC50 ± SD, JEG-3 cells, 24 h exposure) was 206 ± 47.1 µM; in data set [4] (setting [6]), 157 ± 21.4 µM. Also, the “cell viability relative to vehicle control (rough binning)” value in data set [1] is reported as “reduced cell viability”. The minimal effective concentration in data set [2] (Homo sapiens, JEG-3, 24 h) was found to be 300 µM; in data set [4] (Homo sapiens, JEG-3, 24 h), 150 µM. In data set [2], the “MMP relative to vehicle control (rough binning)” value (from here on “MMP relative to vehicle control”) is “reduced MMP”. Besides, the “cytotoxicity / cell death” value in data set [3] (100 µM) is “minimal cell death; also recorded: not cytotoxic”. Moreover, the cell death result in data set [3] (150 µM) is recorded as “Complete cell death”. The “concentration that promoted cell death” value in data set [3] is at least 150 µM. The “cellular proliferation relative to vehicle control (rough binning)” value in data set [4] is recorded as “reduced proliferation”.

Consider `O=C(O)C(F)(F)C(F)(F)C(F)(F)C(F)(F)C(F)(F)F` [Perfluorohexanoic acid], for which the “Viability ↑, lowest concentration at which the mean response value exceeded the mean control value ± 2*SD (rough binning)” value in data set [1] (JEG-3 cells, 24 h, increase) was 300 µM. For the same compound, in data set [1], the “cell viability relative to vehicle control (rough binning)” value was “increased cell viability”. Further, the EC50 is 142 ± 12.6 µM in data set [2] (setting [7]); 141 ± 11.1 µM in data set [2] (Homo sapiens, JEG-3, 24 h, read-out: MMP EC50 ± SE, JEG-3 cells, 24 h); 10418 ± 10 µM in data set [4] (setting [8]). Also, the minimal effective concentration in data set [2] (Homo sapiens, JEG-3, 24 h) is 100 µM; in data set [4] (Homo sapiens, JEG-3, 24 h), 100 µM. Moreover, in data set [2], the “MMP relative to vehicle control” value was “reduced MMP”. Besides, the “cellular proliferation relative to vehicle control (rough binning)” value in data set [4] is reported as “reduced cellular proliferation”.

As to `NC(=O)C(F)(F)C(F)(F)C(F)(F)C(F)(F)C(F)(F)C(F)(F)C(F)(F)F` [Perfluorooctanamide], in data set [5], the “cellular migration relative to vehicle control” value was “significantly reduced”. Moreover, the EC50 in data set [2] (setting [7]) is 295 ± 66.1 µM; in data set [4] (setting [6]), 114 µM; in data set [4] (Homo sapiens, JEG-3, 24 h, read-out: proliferation EC50 ± SE, JEG-3 cells, 24 h), 114 ± 35.6 µM; in data set [4] (setting [8]), 114 ± 35.6 µM.

As for `O=C(O)C(F)(F)C(F)(F)C(F)(F)C(F)(F)C(F)(F)C(F)(F)C(F)(F)C(F)(F)C(F)(F)C(F)(F)F` [Perfluoroundecanoic acid], in data set [1] (JEG-3 cells, 24 h, decrease), the “Viability ↓, lowest concentration at which the mean response value exceeded the mean control value ± 2*SD (rough binning)” value turned out to be 300 µM. Besides, the EC50 is 266 ± 12.4 µM in data set [1] (JEG-3 cells, 24 h exposure, read-out: Viability EC50 ± SD); 200 ± 4 µM in data set [2] (JEG-3 cells, 24 h exposure, four-parameter fit, estimates meeting inclusion criteria, read-out: MMP EC50 ± SD); 230 ± 13.3 µM in data set [4] (JEG-3 cells, 24 h exposure, four-parameter fit, estimates meeting inclusion criteria, read-out: Proliferation EC50 ± SD). The “cell viability relative to vehicle control (rough binning)” value in data set [1] is reported as “reduced cell viability”. The “MMP ↓, lowest concentration at which the mean response value exceeded the mean control value ± 2*SD (rough binning)” value in data set [2] (JEG-3 cells, 24 h, decrease) stood at 100 µM. In addition, the “MMP relative to vehicle control” value in data set [2] was “reduced MMP”. For the same compound, the “Prolif ↓, lowest concentration at which the mean response value exceeded the mean control value ± 2*SD (rough binning)” value in data set [4] (JEG-3 cells, 24 h, decrease) is given as 100 µM. The “cellular proliferation relative to vehicle control (rough binning)” value in data set [4] is recorded as “reduced cellular proliferation”.
